Source: US20260055398A1, “IMPROVED POLYMER DEGRADING ENZYMES” (CAMBRIDGE ENTERPRISE LIMITED, priority 2022, published 2026)
One block for each molecule: values may come before it.

Experiments:
Format in all cases: biochemical
[1] = tested on: N20O1; experiment: Kinetics of p-NP acyl ester hydrolysis by N20O1; settings: 50 mM Tris-HCl pH 8.0, 0.3% (v/v) triton X-100, 22° C.
Method: The activity of all esterase hits was determined via hydrolysis of p-nitrophenol (p-NP) carboxylesterase by monitoring the release of p-nitrophenol. The amount of p-nitrophenol released was quantified by absorbance at 405 nm (εpNP=17,000 M−1.cm−1) using a Spectramax 190 microplate reader (Molecular Devices). Unless otherwise indicated, the measurements were performed at 22° C. in triplicate using 96-well plates with a final assay volume of 100 μL in 50 mM Tris-HCl pH 8.0 and 0.3% (v/v) triton X-100. The substrate specificity was investigated by measuring the hydrolysis of the following p-NP-fatty acyl esters: butyrate (C4), hexanoate (C6 from TCI Chemicals, H0484), octanoate (C8), decanoate (C10), dodecanoate (C12), myristate (C14) and palmitate (C16). The kinetic parameters for each substrate were obtained by non-linear regression of the data using the Michaelis-Menten equation: V=Vmax*[S]/(Km+[S]), where V is the rate, Vmax is the maximum rate achieved by the reaction, S is the substrate concentration, and Km is the Michaelis-Menten constant. The effect of the pH was evaluated by measuring the enzyme activity at pH 4.0 to 11.0 in 50 mM of the following buffers containing 0.3% (v/v) triton X-100: sodium citrate at pH 4.0, pH 5.0 and 6.0; phosphate at pH 6.0, 7.0, 8.0; Tris-HCl at pH 7.0, 8.0 and 9.0; N-cyclohexyl-3-aminopropanesulfonic acid (CAPS) at pH 9.5, 10.0, 11.0. […]

[2] = tested on: RR11O2; experiment: Kinetics of p-NP acyl ester hydrolysis by RR11O2; settings: 50 mM Tris-HCl pH 8.0, 0.3% (v/v) triton X-100, 22° C.
Method: (B) Detail of RR11O2's cavity (in blue) and the catalytic triad (in cyan) S149, D311 and H308. (C) The catalytic efficiencies of RR11O2 measured against p-NP acyl esters [acetate (C2), butyrate (C4), hexanoate (C6), octanoate (C8), decanoate (C10), dodecanoate (C12), myristate (C14) and palmitate (C16)]. The reactions were performed in buffer containing 50 mM Tris-HCl PH 8.0 and 0.3% (v/v) Triton X-100 at 22° C.
The activity of all esterase hits was determined via hydrolysis of p-nitrophenol (p-NP) carboxylesterase by monitoring the release of p-nitrophenol. The amount of p-nitrophenol released was quantified by absorbance at 405 nm (εpNP=17,000 M−1.cm−1) using a Spectramax 190 microplate reader (Molecular Devices). Unless otherwise indicated, the measurements were performed at 22° C. in triplicate using 96-well plates with a final assay volume of 100 μL in 50 mM Tris-HCl pH 8.0 and 0.3% (v/v) triton X-100. The substrate specificity was investigated by measuring the hydrolysis of the following p-NP-fatty acyl esters: butyrate (C4), hexanoate (C6 from TCI Chemicals, H0484), octanoate (C8), decanoate (C10), dodecanoate (C12), myristate (C14) and palmitate (C16). The kinetic parameters for each substrate were obtained by non-linear regression of the data using the Michaelis-Menten equation: V=Vmax*[S]/(Km+[S]), where V is the rate, Vmax is the maximum rate achieved by the reaction, S is the substrate concentration, and Km is the Michaelis-Menten constant. The effect of the pH was evaluated by measuring the enzyme activity at pH 4.0 to 11.0 in 50 mM of the following buffers containing 0.3% (v/v) triton X-100: sodium citrate at pH 4.0, pH 5.0 and 6.0; phosphate at pH 6.0, 7.0, 8.0; Tris-HCl at pH 7.0, 8.0 and 9.0; N-cyclohexyl-3-aminopropanesulfonic acid (CAPS) at pH 9.5, 10.0, 11.0.
The enzyme activity of purified RR11O2, Bla-CI5En2 and IsPETase was tested against different p-NP acyl esters [acetate (C2), butyrate (C4), hexanoate (C6), octanoate (C8), decanoate (C10), dodecanoate (C12) and myristate (C14)]. The final enzyme concentration of the enzymes in the reaction depended on the p-NP acyl ester used as substrate. Kinetics were measured at enzyme concentrations of RR11O2, Bla-CI5En2 and IsPETase between 31.25 μM to 23.2 μM, 2.5 nM to 50 nM, and 50 nM to 4.8 μM, respectively. The p-NP acyl ester substrates were used in a concentration range between 0 and 4 mM. The kinetic parameters Vmax and Km were calculated using Kaleidagraph by non-linear lest square fits of initial rates to the Michaelis-Menten equation. […] The released p-nitrophenol was monitored spectro-photometrically at 405 nm (εpNP=18.300 M−1.cm−1) by taking time points in 20 second intervals in a SpectraMax® M3 Microplate Reader (Molecular Devices).

[3] = Enzymatic degradation of PET (nanoparticles, film), HPLC of released TPA and MHET
From the text: (A) Sequence network of currently known PETases and a novel esterase metagenomic-derived, RR11O2. […] Grey nodes represent sequences extracted from MGnify and NCBI. Red node represents RR11O2, blue nodes represent known PETases, green and orange nodes represent reported cutinases and esterases showing PET activity, respectively, and light blue nodes represent described polyester degrading enzymes in the literature. To putatively characterise sequence clusters, the identification of PETases, cutinases, esterases and RR11O2 in the network helped to define the potential clusters. The cluster of RR11O2, CI5En2 and PETase are written in grey. (B) PET hydrolases catalyze the depolymerization of poly(ethylene terephthalate) (PET) to bis(2-hydroxyethyl) terephthalate (BHET), mono(2-hydroxyethyl)-terephthalic (MHET) or terephthalic acid (TPA) and ethylene glycol (EG). During characterizations via high-performance liquid chromatography (HPLC) MHET and TPA have been identified as main products. […] Absorbance at 250 nm was monitored.
(A) Enrichment of variants with higher activity compared to wildtype after sorting the ep-PCR library of CI5En2. […] Amount of the released monomers TPA and MHET was determined via HPLC and corresponding standard curves for TPA and MHET. […]
HPLC analysis of the products released after one week incubation at 30° C. using 6 μM pExp-bla-CI5En2-WT. Absorbance at 250 nm was monitored which detects released TPA and MHET.
To detect the release of TPA, MHET and BHET in the presence of various enzymes, aliquots were taken from reaction mixtures, turnover was stopped by addition of an equal volume of methanol containing 0.5% formic acid, centrifuged (16,100×g, 15 min) and analysed by HPLC (1260 Infinity II, Agilent; Nucleodur C18 analytical EC standard column (5 μm, 4×125 mm, Macherey-Nagel, Germany). As the mobile phase mixtures of buffer A (0.1% formic acid in distilled water) and buffer C (distilled water), as well as buffer D (acetonitrile) were used at a flow rate of 1 mL/min. Buffer A was kept at 20% for the whole run. […]

Km [1]: 1500 µM | Km [2]: 2000 µM
Molecule: CCCCCCCCCC(=O)Oc1ccc([N+](=O)[O-])cc1 [Substrate 3e, p-NP decanoate]
kcat [1]: 31 s⁻¹ | kcat [2]: 5.4 s⁻¹

Km [1]: 1100 µM | Km [2]: 370 µM
Molecule: CCCCCCCC(=O)Oc1ccc([N+](=O)[O-])cc1 [Substrate 3d, p-NP octanoate]
kcat [1]: 370 s⁻¹ | kcat [2]: 11 s⁻¹

Km [1]: 4800 µM | Km [2]: 7400 µM
Molecule: CCCCCCCCCCCCCCCC(=O)Oc1ccc([N+](=O)[O-])cc1 [Substrate 3h, p-NP palmitate]
kcat [1]: 0.016 s⁻¹ | kcat [2]: 0.017 s⁻¹

Km [1]: 1400 µM | Km [2]: 720 µM
Molecule: CCCCCC(=O)Oc1ccc([N+](=O)[O-])cc1 [Substrate 3c, p-NP hexanoate]
kcat [1]: 250 s⁻¹ | kcat [2]: 35 s⁻¹

Km [1]: 2200 µM | Km [2]: 2200 µM
Molecule: CCCC(=O)Oc1ccc([N+](=O)[O-])cc1 [Substrate 3b, p-NP butyrate]
kcat [1]: 630 s⁻¹ | kcat [2]: 46 s⁻¹

Km [1]: 4400 µM | Km [2]: 1500 µM
Molecule: CCCCCCCCCCCCCC(=O)Oc1ccc([N+](=O)[O-])cc1 [Substrate 3g, p-NP myristate]
kcat [1]: 0.042 s⁻¹ | kcat [2]: 0.039 s⁻¹

Km [1]: 3800 µM | Km [2]: 30000 µM
Molecule: CC(=O)Oc1ccc([N+](=O)[O-])cc1 [Substrate 3a, p-NP acetate]
kcat [1]: 520 s⁻¹ | kcat [2]: 390 s⁻¹

Km [1]: 2000 µM | Km [2]: 2800 µM
Molecule: CCCCCCCCCCCC(=O)Oc1ccc([N+](=O)[O-])cc1 [Substrate 3f, p-NP dodecanoate]
kcat [1]: 0.5 s⁻¹ | kcat [2]: 0.78 s⁻¹

B1: RR11O2: metagenomic-derived esterase with promiscuous activity on PET; amino acid SEQ ID NO. 4; PDB 6ZZV (protein)
chain: MSENMNRPLDYSQKANWYQIPEVTKEFDTFYVYATEYILSSMEEGAPDYADMENAEMLEGAAAEYMLHATAYADSTNVFMPYYRQVGLRYAGVVWKRDGIFDASVAGMPYGDIVAALDYYFEHYNNGRPFIIAGHSQGSAIIKMVLKKYFVEHPDYYKRMIAAYPIGYAFTKDEFKTYPHMKFATGECDTGVIITWNTEGPKNREVNADTCVLQPGSMSINPLNWKLDDTYAPASMNLGSLFPNKDTGKLEIQDLGADAQVFPDRGVVVTHAMGEEMTEETAKVAAEFFGPDGRHGEDYVLFYCNIKDNVAKRISAYMANRK
modifications: RR1102
promiscuous activity on PET [3]: exhibits promiscuous activity on PET
